Consider 64 compounds from patent publication US11535621B2, “Heterobicyclic amides as inhibitors of CD38” (Ribon Therapeutics, Inc., priority 2019, dated 2022).

In general, IC50 refers to the concentration needed to halve the response being measured. Lower therefore signals higher potency.

Molecules are shown by their SMILES. A value given as a limit tells only on which side of the number the result lay.

Human CD38, sequence (P28907 whole entry): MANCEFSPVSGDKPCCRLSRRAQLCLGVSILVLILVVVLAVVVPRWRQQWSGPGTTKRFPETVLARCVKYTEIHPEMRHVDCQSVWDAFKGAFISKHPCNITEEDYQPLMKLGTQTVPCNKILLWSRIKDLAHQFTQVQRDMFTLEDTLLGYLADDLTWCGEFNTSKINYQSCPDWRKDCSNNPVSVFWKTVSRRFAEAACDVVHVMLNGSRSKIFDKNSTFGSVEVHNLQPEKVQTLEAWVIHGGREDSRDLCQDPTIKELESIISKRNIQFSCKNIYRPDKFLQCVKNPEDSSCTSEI

The experiment deals with Human CD38 (Homo sapiens (Human), UniProt P28907). In words: CD38 enzyme assay. It counts as biochemical. The note with it: 2 nM CD38, NAD+ substrate, absorbance at 405 nm. Put shortly:
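IC50 values come from fitting % inhibition against compound concentration with a 4-parameter logistic, or a 3-parameter fit with top/bottom fixed at 100/0 or Hill at 1. Inhibition is scaled between DMSO wells and positive-control wells treated with a quinolinone CD38 inhibitor.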
For the compound `CC(C)[C@](C)(O)COC1CCC(NC(=O)c2nc(-n3ccnc3)nc3cc[nH]c23)CC1` (stereo partly drawn) [Example 126b, N-((1R,4r)-4-((S)-2-hydroxy-2,3-dimethylbutoxy)cyclohexyl)-2-(1H-imidazol-1-yl)-5H-pyrrolo[3,2-d]pyrimidine-4-carboxamide], the IC50 was 10 to 100 nM.

Regarding `C[C@](O)(C(=O)NC1CCC(NC(=O)c2nc(-n3ccnc3)nc3cc[nH]c23)CC1)C(F)(F)F` (stereo partly drawn) [Example 127b, 2-(1H-imidazol-1-yl)-N-((1R,4r)-4-((S)-3,3,3-trifluoro-2-hydroxy-2-methylpropanamido)cyclohexyl)-5H-pyrrolo[3,2-d]pyrimidine-4-carboxamide], the IC50 lay in the range of 10 to 100 nM.

Compound `CO[C@]1(C)CC[C@@H](NC(=O)c2nc(-n3ccnc3)nc3cc[nH]c23)CC1` [Example 128a, 2-(1H-imidazol-1-yl)-N-((1r,4r)-4-methoxy-4-methylcyclohexyl)-5H-pyrrolo[3,2-d]pyrimidine-4-carboxamide] had an IC50 of under 10 nM.

On to `CO[C@]1(C)CC[C@H](NC(=O)c2nc(-n3ccnc3)nc3cc[nH]c23)CC1` [Example 128b, 2-(1H-imidazol-1-yl)-N-((1s,4s)-4-methoxy-4-methylcyclohexyl)-5H-pyrrolo[3,2-d]pyrimidine-4-carboxamide], for which the half-maximal inhibitory concentration (IC50) was 10 to 100 nM.

`CN(C)CCOc1ccc(NC(=O)c2nc(-n3ccnc3)nc3cc[nH]c23)nc1` [Example 129] returned an IC50 of 10 to 100 nM.

Turning to `N#Cc1ccc(NC(=O)c2nc(-n3ccnc3)nc3cc[nH]c23)cc1` [Example 130], the IC50 is under 10 nM.

Consider `COCCOc1ccc(NC(=O)c2nc(-n3ccnc3)nc3cc[nH]c23)cc1F` [Example 131], for which the IC50 is under 10 nM.

Compound `COCn1cc(NC(=O)c2nc(-n3ccnc3)nc3cc[nH]c23)cn1` [Example 132] had an IC50 of under 10 nM.

As to `CN(C)CCOCCO[C@H]1CC[C@H](NC(=O)c2nc(-n3ccnc3)nc3cc[nH]c23)CC1` [Example 133], the IC50 was 10 to 100 nM.

In the case of `O=C(Nc1ccc(Cl)cn1)c1nc(-n2ccnc2)nc2cc[nH]c12` [Example 134], the IC50 is under 10 nM.

Regarding `CC1(NC(=O)c2nc(-n3ccnc3)nc3cc[nH]c23)CCOCC1` [Example 135], the IC50 is 10 to 100 nM.

In turn, `CO[C@H]1CC[C@H](NC(=O)c2nc(-n3ccnc3)nc3ccsc23)CC1` [Example 136] came in with an IC50 of under 10 nM.

Consider `O=C(Nc1ccc(Cl)nc1)c1nc(-n2ccnc2)nc2cc[nH]c12` [Example 137], for which the IC50 is under 10 nM.

Regarding `O=C(Nc1ccncc1)c1nc(-n2ccnc2)nc2cc[nH]c12` [Example 138], the IC50 was under 10 nM.

`CC(C)(O)[C@H]1CC[C@H](NC(=O)c2nc(-n3ccnc3)nc3cc[nH]c23)CC1` [Example 139] registered an IC50 of 10 to 100 nM.

`O=C(Nc1ccnc(Cl)c1)c1nc(-n2ccnc2)nc2cc[nH]c12` [Example 140] came in with an IC50 of under 10 nM.

For the compound `O=C(Nc1cncc(Cl)c1)c1nc(-n2ccnc2)nc2cc[nH]c12` [Example 141], the IC50 is under 10 nM.

`O=C(Nc1cc(Cl)ccn1)c1nc(-n2ccnc2)nc2cc[nH]c12` [Example 142] showed an IC50 of under 10 nM.

In the case of `O=C(NC1CCN(C(=O)CN2CCOCC2)CC1)c1nc(-n2ccnc2)nc2cc[nH]c12` [Example 143], the IC50 was in the range of 10 to 100 nM.

`O=C(Nc1cccc(Cl)n1)c1nc(-n2ccnc2)nc2cc[nH]c12` [Example 144] registered an IC50 of under 10 nM.

As for `O=C(Nc1ccc(OCCN2CCOCC2)nc1)c1nc(-n2ccnc2)nc2cc[nH]c12` [Example 145], the half-inhibitory concentration (IC50) was under 10 nM.

`CN(C)C(=O)CO[C@H]1CC[C@H](NC(=O)c2nc(-n3ccnc3)nc3cc[nH]c23)CC1` [Example 146] displayed a half-maximal inhibitory concentration (IC50) of 10 to 100 nM.

In turn, `O=C(N[C@H]1CC[C@H](C(F)(F)F)CC1)c1nc(-n2ccnc2)nc2nc[nH]c12` [Example 147] displayed an IC50 of 10 to 100 nM.

In the case of `N#C[C@H]1CC[C@H](NC(=O)c2nc(-n3ccnc3)nc3cc[nH]c23)CC1` [Example 148], the IC50 was under 10 nM.

Take `O=C(NC1CCC(F)(F)CC1)c1nc(-n2ccnc2)nc2ccsc12` [Example 149]: the IC50 is under 10 nM.

`O=C(Nc1ccncn1)c1nc(-n2ccnc2)nc2cc[nH]c12` [Example 150] returned an IC50 of under 10 nM.

Compound `CN(C)CCOc1ccc(NC(=O)c2nc(-n3ccnc3)nc3ccsc23)cn1` [Example 151] gave an IC50 of under 10 nM.

In turn, `O=C(NC1CCC(F)(F)CC1)c1nc(-n2ccnc2)nc2nc[nH]c12` [Example 152] had an IC50 of 10 to 100 nM.

The compound `O=C(Nc1cncnc1)c1nc(-n2ccnc2)nc2cc[nH]c12` [Example 153] showed an IC50 of under 10 nM.

`CN1CCN(c2ccc(NC(=O)c3nc(-n4ccnc4)nc4cc[nH]c34)cn2)CC1` [Example 154] registered a half-inhibitory concentration (IC50) of under 10 nM.

For the compound `O=C(N[C@H]1CC[C@H](N2CCOCC2)CC1)c1nc(-n2ccnc2)nc2cc[nH]c12` [Example 155], the IC50 fell in the range of 10 to 100 nM.

The compound `O=C(Nc1cnc(OCCN2CCOCC2)c(Cl)c1)c1nc(-n2ccnc2)nc2cc[nH]c12` [Example 156] displayed a 50% inhibitory concentration (IC50) of under 10 nM.

On to `O=C(NCCC1CCC(F)(F)CC1)c1nc(-n2ccnc2)nc2cc[nH]c12` [Example 157], for which the IC50 lay within 10 to 100 nM.

For `O=C(Nc1ccc(N2CCC(N3CCOCC3)CC2)nc1)c1nc(-n2ccnc2)nc2cc[nH]c12` [Example 158], the IC50 fell in the range of 10 to 100 nM.

`O=C(NC1CCC(F)(F)CC1)c1nc(-n2ccnc2)nc2cn[nH]c12` [Example 159]: the IC50 was under 10 nM.

For the compound `O=C(N[C@H]1CC[C@H](C(F)(F)F)CC1)c1nc(-n2ccnc2)nc2cn[nH]c12` [Example 160], the IC50 was 10 to 100 nM.

In turn, `O=C(N[C@H]1CC[C@@H](C(F)(F)F)CC1)c1nc(-n2ccnc2)nc2cn[nH]c12` [Example 161] returned an IC50 of 10 to 100 nM.

`O=C(Nc1ccon1)c1nc(-n2ccnc2)nc2cc[nH]c12` [Example 162] returned an IC50 of under 10 nM.

Consider `COCCN1CCc2ccc(NC(=O)c3nc(-n4ccnc4)nc4cc[nH]c34)cc2C1` [Example 163], for which the IC50 fell in the range of 10 to 100 nM.

Regarding `O=C(NC1(c2ccccc2)CC1)c1nc(-n2ccnc2)nc2cc[nH]c12` [Example 164], the IC50 was 10 to 100 nM.

For the compound `COCCOc1ncc(NC(=O)c2nc(-n3ccnc3)nc3cc[nH]c23)cn1` [Example 165], the IC50 was 10 to 100 nM.

In turn, `N#C[C@H]1CC[C@H](CNC(=O)c2nc(-n3ccnc3)nc3cc[nH]c23)CC1` [Example 166] showed an IC50 of 10 to 100 nM.

Take `O=C(N[C@H]1CC[C@H](OC(F)(F)F)CC1)c1nc(-n2ccnc2)nc2cc[nH]c12` [Example 167]: the IC50 is 10 to 100 nM.

In the case of `O=C(N[C@H]1CC[C@H](F)CC1)c1nc(-n2ccnc2)nc2cc[nH]c12` [Example 168], the IC50 was 10 to 100 nM.

For the compound `O=C(N[C@H]1CC[C@@H](N2CCOCC2)CC1)c1nc(-n2ccnc2)nc2cc[nH]c12` [Example 169], the IC50 fell in the range of 100 to 1000 nM.

Turning to `CNC(=O)[C@H]1CC[C@H](NC(=O)c2nc(-n3ccnc3)nc3cc[nH]c23)CC1` [Example 170], the IC50 was 10 to 100 nM.

Compound `O=C(N[C@H]1CC[C@H](C(F)(F)F)CC1)c1nc(-n2ccnc2)cc2cn[nH]c12` [Example 171] showed an IC50 of under 10 nM.

In turn, `CC(=O)N1CC2CC1CC2NC(=O)c1nc(-n2ccnc2)nc2cc[nH]c12` (stereo not shown) [Example 172] returned an IC50 of 10 to 100 nM.

Take `Cc1cc2nc(-n3ccnc3)nc(C(=O)NC3CCC(F)(F)CC3)c2[nH]1` [Example 173]: the half-inhibitory concentration (IC50) is under 10 nM.

In the case of `O=C(N[C@H]1CC[C@H](CO)CC1)c1nc(-n2ccnc2)nc2cc[nH]c12` [Example 174], the half-maximal inhibitory concentration (IC50) was under 10 nM.

Take `C[C@]1(O)CC[C@@H](NC(=O)c2nc(-n3ccnc3)nc3cc[nH]c23)CC1` [Example 175]: the IC50 is under 10 nM.

In turn, `C[C@]1(O)CC[C@H](NC(=O)c2nc(-n3ccnc3)nc3cc[nH]c23)CC1` [Example 176] showed an IC50 of 10 to 100 nM.

Consider `O=C(N[C@H]1CC[C@H](O)CC1)c1nc(-n2ccnc2)nc2cc[nH]c12` [Example 177], for which the IC50 was under 10 nM.

On to `O=C(N[C@H]1CC[C@H](N2CCCS2(=O)=O)CC1)c1nc(-n2ccnc2)nc2cc[nH]c12` [Example 178], for which the IC50 fell in the range of 10 to 100 nM.

`COCCN1CCc2cc(NC(=O)c3nc(-n4ccnc4)nc4cc[nH]c34)ccc2C1` [Example 179] yielded a half-inhibitory concentration (IC50) of 10 to 100 nM.

For `O=C(N[C@H]1CC[C@H](NCCC(F)F)CC1)c1nc(-n2ccnc2)nc2cc[nH]c12` [Example 180], the IC50 fell in the range of 10 to 100 nM.

On to `O=C(N[C@H]1CC[C@@H](NCCC(F)F)CC1)c1nc(-n2ccnc2)nc2cc[nH]c12` [Example 181], for which the IC50 is 100 to 1000 nM.

For the compound `CC(C)(O)[C@H]1CC[C@H](NC(=O)c2nc(-n3ccnc3)nc3cn[nH]c23)CC1` [Example 182, N-((1r,4r)-4-(2-hydroxypropan-2-yl)cyclohexyl)-5-(1H-imidazol-1-yl)-1H-pyrazolo[4,3-d]pyrimidine-7-carboxamide], the half-inhibitory concentration (IC50) was under 10 nM.

In turn, `CO[C@H]1CC[C@H](NC(=O)c2nc(-n3ccnc3)nc3cn[nH]c23)CC1` [Example 183] had an IC50 of under 10 nM.

Consider `Cc1cc2nc(-n3ccnc3)nc(C(=O)N[C@H]3CC[C@H](C(C)(C)O)CC3)c2[nH]1` [Example 184], for which the IC50 is under 10 nM.

On to `N#CC[C@H]1CC[C@H](NC(=O)c2nc(-n3ccnc3)nc3cc[nH]c23)CC1` [Example 185], for which the half-inhibitory concentration (IC50) was under 10 nM.

The compound `O=C(N[C@H]1CC[C@@H](O)CC1)c1nc(-n2ccnc2)nc2cc[nH]c12` [Example 186] displayed a half-inhibitory concentration (IC50) of 10 to 100 nM.

With `COC(C)(C)[C@H]1CC[C@H](NC(=O)c2nc(-n3ccnc3)nc3cc[nH]c23)CC1` [Example 187], the IC50 lay within 10 to 100 nM.

With `O=C(N[C@H]1CC[C@@H](NCCC(F)(F)F)CC1)c1nc(-n2ccnc2)cc2cn[nH]c12` [Example 188, 5-(1H-imidazol-1-yl)-N-((1s,4s)-4-((3,3,3-trifluoropropyl)amino)cyclohexyl)-1H-pyrazolo[3,4-c]pyridine-7-carboxamide], the IC50 fell in the range of 100 to 1000 nM.
